Data reported in patent US9902735B2, “Heteroaryl substituted compounds as RORγ inhibitors” (GlaxoSmithKline Intellectual Property Developement Limited, priority 2014, dated 2018).

Target: T1, RORγ (Homo sapiens, UniProt P51449)
T1 construct: expressed in transfected cells
T1 sequence (P51449 1-497 isoform P51449-2): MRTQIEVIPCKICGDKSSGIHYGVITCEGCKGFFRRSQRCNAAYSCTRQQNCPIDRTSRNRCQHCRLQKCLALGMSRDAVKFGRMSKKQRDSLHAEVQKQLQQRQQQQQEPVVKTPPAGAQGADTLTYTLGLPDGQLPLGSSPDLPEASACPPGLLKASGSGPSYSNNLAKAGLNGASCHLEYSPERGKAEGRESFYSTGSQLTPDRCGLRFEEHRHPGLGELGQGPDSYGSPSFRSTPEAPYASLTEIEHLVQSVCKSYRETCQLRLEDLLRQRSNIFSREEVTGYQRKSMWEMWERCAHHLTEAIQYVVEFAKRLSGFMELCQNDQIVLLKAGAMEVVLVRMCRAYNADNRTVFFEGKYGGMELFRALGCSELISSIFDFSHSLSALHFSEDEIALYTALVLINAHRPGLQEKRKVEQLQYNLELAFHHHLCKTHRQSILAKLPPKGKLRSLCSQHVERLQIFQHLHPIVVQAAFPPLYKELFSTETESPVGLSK
Assay: Jurkat cell luciferase assay (human IL17 promoter reporter)
Assay type: cell-based
Details: mean of multiple test results if tested more than once; read-out: pIC50 in the Jurkat cell luciferase assay (converted)
Source text: RORγ is known to bind to a CNS (conserved non-coding sequences) enhancer element in the IL17 promoter. In this assay, RORγ activity is indirectly assessed using a luciferase reporter construct which contains the human IL17 promoter having the RORγ-specific CNS enhancer element. Inhibition of RORγ activity by a compound will result in a decrease in luciferase activity of Jurkat cells transfected with the reporter construct.
For the luciferase reporter plasmid, the 3 Kb human IL17 promoter containing the RORγ-specific CNS enhancer element was PCR amplified from human genomic DNA and cloned into a pGL4-Luc2/hygro reporter plasmid sequentially as XhoI-HindIII (1.1 Kb) and KpnI-XhoI (1.9 Kb) fragments. For the 1.1 Kb fragment, PCR was used to amplify human IL17 proximal promoter region from genomic DNA of 293T cells using primers as follows: forward primer, 5′-[…]-3′ (XhoI site is underlined) and reverse primer, 5′-[…]-3′ (HindIII site is underlined). The 1.1 kb DNA bands were excised, purified, and inserted into pMD19-T Simple Vector (Takara). […]
Compounds were dissolved in DMSO at three concentrations, 10 mM, 400 uM and 16 uM, and were dispensed into 384-wells assay plate at 40 nl, 12.5 nl, 5 nl respectively. The volume was adjusted with pure DMSO to a give a final uniform volume of 40 nl Jurkat cells described above were counted and centrifuged. […]

IC50: ~6.31 nM
SMILES: Cc1ncc(C(=O)Nc2cc(Cl)cc(CN3CCN(C(=O)CC4CC4)[C@@H](C)C3)c2C)cc1F [Example 80, (S)—N-(5-chloro-3-((4-(2-cyclopropylacetyl)-3-methylpiperazin-1-yl)methyl)-2-methylphenyl)-5-fluoro-6-methylnicotinamide]
